Tested on: MCF-7 human breast cancer cell line
Assay: MTT viability assay, MCF-7
Format: cell-based
Conditions: Homo sapiens, MCF7, 72 h, mean ± SD of three independent experiments, read-out: Antiproliferative Activities IC50, MCF-7
Procedure: All the human tumour cell lines MCF-7, HL-60, HCT-116, and HUVEC were cultured in Dulbecco’s Modified Eagle’s Medium (DMEM) with 10% fetal bovine serum, 2 mM L-glutamine and 100 µg/mL penicillin/streptomycin. Cells were maintained at 37 °C in 5% CO2 in a humidified incubator. All cells were sub-cultured three times/week by trypsinization using TrypLE Express (1X).
The Benzotriazole compounds were evaluated for antiproliferative effect using the MTT viability assay of various cancer cell lines (MCF-7, HCT-116 and HL-60) and the normal human umbilical vein endothelial cell line (HUVEC) to calculate the relative IC50 values for each compound. Cells were seeded in triplicate in 96-well plates at a density of 10 × 10^3 cells/mL in a total volume of 200 µL per well. 0.1% of DMSO was used as a vehicle control. After this time, they were treated with 2 µL test compound which had been pre-prepared as stock solutions in ethanol to furnish the concentration range of study, 10 nM to 100 µM, and re-incubated for a further 72 h. The culture medium was then removed, and the cells washed with 100 µL phosphate buffered saline (PBS) and 50 µL MTT added, to reach a final concentration of 1 mg/mL MTT added. Cells were incubated for 2 h in darkness at 37 °C. At this point solubilisation was begun through the addition of […] DMSO and the cells maintained at room temperature in darkness for 20 min to ensure thorough colour diffusion before reading the absorbance. Plates were incubated for 72 h at 37 °C + 5% CO2. The MTT (5 mg/mL in PBS) was added and incubated for another 4 h, and the optical density was detected with a microplate reader at 570 nm. Results were expressed as percentage viability relative to vehicle control (100%). Dose response curves were plotted and IC50 values (concentration of drug resulting in 50% reduction in cell survival) were obtained using the commercial software package Prism (GraphPad Software, Inc., La Jolla, CA, USA). All the experiments were repeated in at least three independent experiments.

IC50: 3.57 ± 0.16 µM
SMILES: S=c1[nH]c(-n2nnc3ccccc32)cn1-c1ccc(Cl)cc1Cl [BI9, 4-(1H-Benzo[d][1,2,3]Triazol-1-yl)-1-(2,4-Dichlorophenyl)-1H-Imidazole-2(3H)-Thione]

Reference: article PMC8512560, “Design, Synthesis, and Antipoliferative Activities of Novel Substituted Imidazole-Thione Linked Benzotriazole Derivatives” (Molecules, 2021)
